From PMC12584665, “In vitro and in vivo efficacy of vancomycin against Elizabethkingia species and the impact of increased vancomycin MICs” (Microbiology Spectrum, 2025)
Values after ≈ are worked out from the molar mass of the structure shown.

Tests used:
[1] = test system: Elizabethkingia anophelis; test: Agar dilution (AD) MIC; type: cell-based
Source text: (§1) Eighteen E. anophelis clinical isolates from the nationwide surveillance program (Taiwan Surveillance of Antimicrobial Resistance) were well characterized in our previous study ([7]) and were selected for susceptibility testing and minimum bactericidal concentration (MBC) assays. Among them, five isolates with different clonality (underlined strains in Fig. S1) were selected for the time-kill assays and in vivo experiments.
(§2) Broth microdilution, disc diffusion, Etest, and agar dilution assays were conducted following CLSI guidelines to determine vancomycin MICs ([8]). […] Criteria for Staphylococcus spp. were not adopted due to the lack of a zone diameter breakpoint. MBCs were determined following CLSI guidelines ([8]).

[2] = test system: Elizabethkingia anophelis; test: Etest MIC; type: cell-based
Source text: as §1, §2

[3] = test system: Elizabethkingia anophelis; test: Minimum bactericidal concentration (MBC) test; type: cell-based; settings: for MBC: Elizabethkingia anophelis
Source text: as §1, §2

[4] = Serum drug levels in mice (LC-MS/MS); type: in vivo; settings: single dose 25 mg/kg subcutaneous, mice, LC-MS/MS; in contrast to 100 mg/kg; 6 to 8 mice per group
Procedure: Fifty microliters of aliquots of murine serum was mixed with 100 µL acetonitrile. The mixture was vortexed and then centrifuged at 15,000 × g for 20 min in a Beckman Coulter Microfuge 22R Centrifuge at room temperature. The supernatant was transferred to a clean tube, and then 15 µL of the supernatant was injected onto LC-MS/MS. The chromatographic system consisted of an Agilent 1200 series LC system and an Agilent ZORBAX Eclipse XDB-C8 column (5 µm, 3.0 × 150 mm) interfaced to an MDS Sciex API3000 tandem mass spectrometer. The MS/MS ion transitions monitored were m/z 725/144 for vancomycin. A gradient HPLC method was employed for separation. Mobile phase A consisted of 10 mM ammonium acetate aqueous solution containing 0.1% formic acid and mobile phase B consisted of acetonitrile. The gradient profile was as follows (min/%B): 0.0–0.9/5, 1.0–2.0/50, 2.1–3.7/95, 3.8–5.0/5. The flow rate was set at 1.5 mL/min.

[5] = test system: Acinetobacter baumannii (LAC-4); test: Murine pneumonia model (model validation); type: in vivo, C57BL/6J mice; settings: 8 mice per group
Procedure: For the pneumonia model, a bacterial suspension was mixed with 5% mucin from porcine stomach (type 3; Sigma-Aldrich, Saint Louis, USA). Seven-week-old C57BL/6J mice were anesthetized with isoflurane for 10 min. For each strain, the inoculum corresponded to the lowest dose that caused >80% mortality in preliminary testing. This inoculum (10⁶–10⁸ cfu, depending on strain) was delivered intratracheally to induce pneumonia. Two hours thereafter, mice received either high or human-equivalent doses of subcutaneous vancomycin (100 mg/kg or 25 mg/kg, respectively) or intraperitoneal teicoplanin (50 mg/kg) ([17]) twice daily for 3 days. Each group contained eight mice, and survival was monitored for 3 days.

[6] = test system: Elizabethkingia anophelis; test: Disc diffusion (DD) zone diameter; type: cell-based
Source text: as §1, §2

[7] = test system: Elizabethkingia anophelis; test: Time-kill assay; type: cell-based; settings: triplicate; for growth in time-kill assay: five clinical isolates, MH broth, ~5 x 10^5 CFU/mL, 37°C
Procedure: Time-kill assays were performed as previously described with modifications ([10]). Each 250 mL flask containing 30 mL MH broth (Becton Dickinson, Franklin Lakes, NJ, USA) was inoculated to achieve an initial bacterial density of ~5 × 10⁵ CFU/mL. Cultures were incubated at 37°C with shaking at 200 rpm. Vancomycin or teicoplanin (Sigma-Aldrich, Saint Louis, MO, USA) was added at final concentrations of 4 or 16 mg/L. At designated time points, 100 µL of samples was removed, serially diluted in sterile saline, and plated on MH agar for CFU enumeration after overnight incubation at 37°C. No washing steps were performed prior to plating; given the culture volume and dilution scheme, antibiotic carryover was expected to be negligible. All experiments were performed in triplicate.

[8] = E. anophelis clinical isolate 2008N05-106
[9] = E. anophelis clinical isolate 2008S01-229
[10] = E. anophelis clinical isolate 2014C06-157
[11] = E. anophelis clinical isolate 2016N17-576
[12] = E. anophelis clinical isolate 2018C04-213
[13] = E. anophelis clinical isolate 2018C04-224
[14] = E. anophelis clinical isolate 2018C07-210
[15] = E. anophelis clinical isolate 2018C07-234
[16] = E. anophelis clinical isolate 2018C08-127
[17] = E. anophelis clinical isolate 2018E03-151
[18] = E. anophelis clinical isolate 2018E04-135
[19] = E. anophelis clinical isolate 2018N16-057
[20] = E. anophelis clinical isolate 2018N17-036
[21] = E. anophelis clinical isolate 2018N17-073
[22] = E. anophelis clinical isolate 2018N17-153
[23] = E. anophelis clinical isolate 2018N21-226
[24] = E. anophelis clinical isolate 2018S09-023
[25] = E. anophelis clinical isolate 2018S11-172

CN[C@H](CC(C)C)C(=O)N[C@H]1C(=O)N[C@@H](CC(N)=O)C(=O)N[C@H]2C(=O)N[C@H]3C(=O)N[C@H](C(=O)N[C@H](C(=O)O)c4cc(O)cc(O)c4-c4cc3ccc4O)[C@H](O)c3ccc(c(Cl)c3)Oc3cc2cc(c3O[C@@H]2O[C@H](CO)[C@@H](O)[C@H](O)[C@H]2O[C@H]2C[C@](C)(N)[C@H](O)[C@H](C)O2)Oc2ccc(cc2Cl)[C@H]1O [Vancomycin]
MIC [1, 8]: 16 µg/mL (≈ 11 µM)
MIC [1, 9]: 16 µg/mL (≈ 11 µM)
MIC [1, 10]: 16 µg/mL (≈ 11 µM)
MIC [1, 11]: 16 µg/mL (≈ 11 µM)
MIC [1, 12]: 16 µg/mL (≈ 11 µM)
MIC [1, 13]: 16 µg/mL (≈ 11 µM)
MIC [1, 14]: 16 µg/mL (≈ 11 µM)
MIC [1, 15]: 16 µg/mL (≈ 11 µM)
MIC [1, 16]: 16 µg/mL (≈ 11 µM)
MIC [1, 17]: 16 µg/mL (≈ 11 µM)
MIC [1, 18]: 16 µg/mL (≈ 11 µM)
MIC [1, 19]: 16 µg/mL (≈ 11 µM)
MIC [1, 20]: 16 µg/mL (≈ 11 µM)
MIC [1, 21]: 16 µg/mL (≈ 11 µM)
MIC [1, 22]: 16 µg/mL (≈ 11 µM)
MIC [1, 23]: 16 µg/mL (≈ 11 µM)
MIC [1, 24]: 16 µg/mL (≈ 11 µM)
MIC [1, 25]: 32 µg/mL (≈ 22.1 µM)
MIC [2, 8]: 24 µg/mL (≈ 16.6 µM)
MIC [2, 9]: 16 µg/mL (≈ 11 µM)
MIC [2, 10]: 16 µg/mL (≈ 11 µM)
MIC [2, 11]: 16 µg/mL (≈ 11 µM)
MIC [2, 12]: 16 µg/mL (≈ 11 µM)
MIC [2, 13]: 16 µg/mL (≈ 11 µM)
MIC [2, 14]: 16 µg/mL (≈ 11 µM)
MIC [2, 15]: 16 µg/mL (≈ 11 µM)
MIC [2, 16]: 16 µg/mL (≈ 11 µM)
MIC [2, 17]: 16 µg/mL (≈ 11 µM)
MIC [2, 18]: 16 µg/mL (≈ 11 µM)
MIC [2, 19]: 16 µg/mL (≈ 11 µM)
MIC [2, 20]: 16 µg/mL (≈ 11 µM)
MIC [2, 21]: 16 µg/mL (≈ 11 µM)
MIC [2, 22]: 16 µg/mL (≈ 11 µM)
MIC [2, 23]: 24 µg/mL (≈ 16.6 µM)
MIC [2, 24]: 16 µg/mL (≈ 11 µM)
MIC [2, 25]: 32 µg/mL (≈ 22.1 µM)
MBCs relative to MICs ([3]; 18 E. anophelis isolates): within a twofold range of MICs
MBC [3, 8]: 16 µg/mL (≈ 11 µM)
MBC [3, 9]: 32 µg/mL (≈ 22.1 µM)
MBC [3, 10]: 16 µg/mL (≈ 11 µM)
MBC [3, 11]: 32 µg/mL (≈ 22.1 µM)
MBC [3, 12]: 16 µg/mL (≈ 11 µM)
MBC [3, 13]: 16 µg/mL (≈ 11 µM)
MBC [3, 14]: 16 µg/mL (≈ 11 µM)
MBC [3, 15]: 16 µg/mL (≈ 11 µM)
MBC [3, 16]: 16 µg/mL (≈ 11 µM)
MBC [3, 17]: 16 µg/mL (≈ 11 µM)
MBC [3, 18]: 16 µg/mL (≈ 11 µM)
MBC [3, 19]: 16 µg/mL (≈ 11 µM)
MBC [3, 20]: 32 µg/mL (≈ 22.1 µM)
MBC [3, 21]: 16 µg/mL (≈ 11 µM)
MBC [3, 22]: 16 µg/mL (≈ 11 µM)
MBC [3, 23]: 16 µg/mL (≈ 11 µM)
MBC [3, 24]: 16 µg/mL (≈ 11 µM)
MBC [3, 25]: 32 µg/mL (≈ 22.1 µM)
serum concentration-time profile [4]: resembled that of humans
survival of A. baumannii-infected mice ([5]; 100 mg/kg subcutaneous twice daily): did not improve the survival
activity in A. baumannii pneumonia model ([5]; 25 or 100 mg/kg subcutaneous twice daily, A. baumannii LAC-4): Lack of vancomycin (VAN) activity
zone diameters, all isolates ([6]; 18 E. anophelis isolates, disc diffusion, susceptibility breakpoint >= 17 mm (Enterococcus spp.)): < 17 mm
DD zone diameter [6, 8]: 15 mm
DD zone diameter [6, 9]: 15 mm
DD zone diameter [6, 10]: 15 mm
DD zone diameter [6, 11]: 15 mm
DD zone diameter [6, 12]: 15 mm
DD zone diameter [6, 13]: 15 mm
DD zone diameter [6, 14]: 14 mm
DD zone diameter [6, 15]: 15 mm
DD zone diameter [6, 16]: 14 mm
DD zone diameter [6, 17]: 14 mm
DD zone diameter [6, 18]: 14 mm
DD zone diameter [6, 19]: 15 mm
DD zone diameter [6, 20]: 15 mm
DD zone diameter [6, 21]: 14 mm
DD zone diameter [6, 22]: 14 mm
DD zone diameter [6, 23]: 13 mm
DD zone diameter [6, 24]: 15 mm
DD zone diameter [6, 25]: 13 mm
growth in time-kill assay ([7]; 4 mg/L): did not inhibit the growth
growth in time-kill assay ([7]; 16 mg/L): Growth was inhibited at a higher level (16 mg/L) at 6 h but increased thereafter
time-kill assay ([7]; 4 or 16 mg/L, mutant 2008S01-229-VAN-R): no effect
